Measured values reported in patent US9131720B2, “High-potency sweetener composition with phytosterol and compositions sweetened therewith” (The Coca-Cola Company, priority 2005, dated 2015).

Tests used:
[1] = Sensory evaluation of sweetness linger by a panel of experts; type: in vivo; conditions: for Sweetness linger rating: 3-4 min after water rinse; for Sweetness Linger rating defined for control samples: scale anchors of the protocol, sucrose, 500 ppm REBA control sample
Description: In a particular embodiment, a panel of assessors is used to measure the reduction of sweetness linger. Briefly described, a panel of assessors (generally 8 to 12 individuals) is trained to evaluate sweetness perception and measure sweetness at several time points from when the sample is initially taken into the mouth until 3 minutes after it has been expectorated. […] A decrease in score for a time point measured after the sample has cleared the mouth indicates there has been a reduction in sweetness perception.
The panel of assessors may be trained using procedures well known to those of ordinary skill in the art. In a particular embodiment, the panel of assessors may be trained using the Spectrum™ Descriptive Analysis Method (Meilgaard et al, Sensory Evaluation Techniques, 3rd edition, Chapter 11). Desirably, the focus of training should be the recognition of and the measure of the basic tastes; specifically, sweet. In order to ensure accuracy and reproducibility of results, each assessor should repeat the measure of the reduction of sweetness linger about three to about five times per sample, taking at least a five minute break between each repetition and/or sample and rinsing well with water to clear the mouth.
Generally, the method of measuring sweetness comprises taking a 10 mL sample into the mouth, holding the sample in the mouth for 5 seconds and gently swirling the sample in the mouth, rating the sweetness intensity perceived at 5 seconds, expectorating the sample (without swallowing following expectorating the sample), rinsing with one mouthful of water (e.g., vigorously moving water in mouth as if with mouth wash) and expectorating the rinse water, rating the sweetness intensity perceived immediately upon expectorating the rinse water, waiting 45 seconds and, while waling those 45 seconds, identifying the time of maximum perceived sweetness intensity and rating the sweetness intensity at that time (moving the mouth normally and swallowing as needed), rating the sweetness intensity after another 10 seconds, rating the sweetness intensity after another 60 seconds (cumulative 120 seconds after rinse), and rating the sweetness intensity after still another 60 seconds (cumulative 180 seconds after rinse). Between samples take a 5 minute break, rinsing well with water to clear the mouth.
Sensory evaluation of the samples prepared in Example Set G was carried out under the following protocol, similar to that described hereinabove. In this test protocol, none of the samples were swallowed. All samples were expectorated and the mouth was rinsed with water after the tasting. Immediately upon sensing maximal sweetness, the sample was expectorated, the mouth was rinsed with water and the rate of sweetness decay (“Sweetness Linger”) was measured, where attention was focused on the sweetness 3-4 min after the water rinse. After sample tasting was complete, a salty oyster cracker was chewed followed by a water rinse, and at least 5 minutes followed before tasting the next sample. The sweetness linger was rated by a panel of experts in the sensory evaluation of foods and beverages using the following scale: 0=no sweetness linger, 1=very slight sweetness linger, 2=slight sweetness linger, 3 moderate sweetness linger, 4=moderately high sweetness linger, 5=high sweetness linger.
The “Sweetness Linger” rating for sucrose observed by this protocol is defined as 0. The Sweetness Linger of a 500 ppm of REBA control sample is defined as 5. […]

[2] = Rate of dissolution in H2O at 25° C. of rebaudioside A polymorphs; type: physicochemical
[3] = type: physicochemical
Description: A solution of rebaudioside A (>97% pure by HPLC) was prepared in double distilled water (12.5 gm in 50 mL, 25% concentration) by stirring the mixture at 40° C. for 5 minutes. An amorphous rebaudioside A polymorph was formed by immediately using the clear solution for spray drying with the Lab-Plant spray drier SD-04 instrument (Lab-Plant Ltd., West Yorkshire, U.K.). The solution was fed through the feed pump into the nozzle atomizer which atomized it into a spray of droplets with the help of a constant flow of nitrogen/air. […] This dry powder (11-12 g, H2O 6.74%) was discharged continuously from the drying chamber and was collected in a bottle.

[4] = 500 ppm REBA (H41: 360 ppm) in carbon-treated water with phosphoric acid (75%), pH 2.4-2.5, scale 0=no to 5=high sweetness linger

Row | Molecule | Sweetness linger rating [1, 4] | Sweetness Linger rating defined for control samples [1] | Sweetness linger rating ([1]; 400 ppm REBA in citric acid/potassium citrate composition equivalent to diet lemon-lime beverage, scale 0=no, 1=very slight, 2=slight, 3=moderate, 4=moderately high, 5=high sweetness linger) | Rate of dissolution in H2O at 25° C. [2] | Solubility in water at room temperature [3]
1 | OC[C@H]1O[C@@](CO)(O[C@H]2O[C@H](CO)[C@@H](O)[C@H](O)[C@H]2O)[C@@H](O)[C@@H]1O [sugar, sucrose] | 0 | 0 |  |  | 
2 | rebaudioside A | 5 | 5 | 5 |  | 
3 | rebaudioside A [Form 4] |  |  |  | (>35.0%/ %/5 minutes | > 35.0%
